Data published in patent publication US9187465B2, “Oxazole tyrosine kinase inhibitors” (Sareum Limited, priority 2007, dated 2015).

Columns and labels:
human FLT4 = target: T1, human FLT4 (Homo sapiens, UniProt P35916); assay: FLT4 kinase assay (DELFIA enzyme inhibition); assay type: biochemical; conditions: read-out: FLT4 IC50
T1 construct: a construct expressing the human FLT4 (789-1207) with an amino terminal GST tag; host or cells: Sf9 insect cells (baculovirus)
Summary of the method: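 Read-out is DELFIA: biotinylated MET Tyr1253-derived peptide captured on Neutravidin, phosphotyrosine detected by Eu-antibody time-resolved fluorescence. Enzyme is Sf9-expressed GST-FLT4 (789-1207), reacting 30 min at room temperature before EDTA stop. IC50 derived from plotted % inhibition.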

human Aurora A = target: T2, human Aurora A (Homo sapiens, UniProt O14965); assay: Aurora A kinase assay (DELFIA enzyme inhibition); assay type: biochemical; conditions: read-out: Aurora A IC50
T2 construct: Histidine tag (N); host or cells: Sf9 insect cells (baculovirus)
T2 sequence (O14965 1-403): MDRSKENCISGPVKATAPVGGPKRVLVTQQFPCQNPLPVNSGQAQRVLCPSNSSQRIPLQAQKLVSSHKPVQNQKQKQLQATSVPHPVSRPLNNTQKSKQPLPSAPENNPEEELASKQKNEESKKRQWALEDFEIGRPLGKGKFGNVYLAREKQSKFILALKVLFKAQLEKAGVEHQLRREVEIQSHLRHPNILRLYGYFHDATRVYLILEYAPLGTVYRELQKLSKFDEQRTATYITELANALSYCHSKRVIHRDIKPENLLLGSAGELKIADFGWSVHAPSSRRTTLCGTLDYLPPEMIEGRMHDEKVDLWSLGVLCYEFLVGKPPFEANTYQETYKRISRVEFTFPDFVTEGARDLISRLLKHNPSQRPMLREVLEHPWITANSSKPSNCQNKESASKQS
Procedure: The protein was purified by one-step affinity chromatography using nickel-agarose […]
Assay reactions are set up in a 25 uL final volume on a 96 well plate. […] The reaction is allowed to proceed for 30 minutes at room temperature before stopping with 100 μL Stop solution comprising of 100 mM EDTA, 1×BSA blocker in TBS (Perbio) and 0.05% Surfact-Amps20 (Perbio).
The stopped reaction is transferred to a black 96-well Neutravidin-coated plate (Perbio) and incubated for 30 minutes to capture the biotinylated peptide substrate. […] After repeating the washing step, the plate is further incubated for one hour with Europium-labelled anti-rabbit antibody (Perkin Elmer AD0105). The wash step is repeated for a final time before DELFIA Enhancement solution (Perkin Elmer) is added to all wells for 5 minutes and the fluorescence measured on a plate reader Analyst HT (Molecular Devices).

T1 sequence (P35916 789-1207): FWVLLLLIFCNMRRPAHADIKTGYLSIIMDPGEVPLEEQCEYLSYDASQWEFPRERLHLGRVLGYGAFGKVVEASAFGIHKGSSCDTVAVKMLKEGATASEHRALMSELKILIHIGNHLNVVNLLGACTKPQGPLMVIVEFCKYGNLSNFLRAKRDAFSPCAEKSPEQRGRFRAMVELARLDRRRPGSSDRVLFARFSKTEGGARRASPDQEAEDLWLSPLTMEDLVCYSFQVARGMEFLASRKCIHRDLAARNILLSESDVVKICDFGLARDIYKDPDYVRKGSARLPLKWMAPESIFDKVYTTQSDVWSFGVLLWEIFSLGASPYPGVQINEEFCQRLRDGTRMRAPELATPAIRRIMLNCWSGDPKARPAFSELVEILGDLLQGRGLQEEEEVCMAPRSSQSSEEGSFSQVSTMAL

| SMILES | IC50 (human FLT4) | IC50 (human Aurora A) |
| --- | --- | --- |
| CS(=O)(=O)c1ccc(F)c(Nc2oc(-c3c(F)cccc3F)nc2C(N)=O)c1 [Example Q-44, 2-(2,6-difluorophenyl)-5-(2-fluoro-5-(methylsulfonyl)phenylamino)oxazole-4-carboxamide] | < 10 µM | < 100 µM |
| CNCCCNC(=O)c1ccc(Nc2oc(-c3c(F)cccc3F)nc2C(N)=O)cc1 [Example U-4, 5-(4-((3-(methylamino)propyl)carbamoyl)phenylamino)-2-(2,6-difluorophenyl) oxazole-4-carboxamide] | < 10 µM | < 10 µM |
| NCCNC(=O)c1ccc(Nc2oc(-c3c(F)cccc3F)nc2C(N)=O)cc1 [Example Q-52, 5-(4-((2-aminoethyl)carbamoyl)phenylamino)-2-(2,6-difluorophenyl)oxazole-4-carboxamide] | < 10 µM | < 10 µM |
| NC(=O)c1nc(-c2c(F)cccc2F)oc1-c1ccc(OCCN2CCCC(O)C2)cc1 (stereo not shown) [Example S-17, 2-(2,6-difluorophenyl)-5-(4-(2-(3-hydroxypiperidin-1-yl)ethoxy)phenyl)oxazole-4-carboxamide] | < 10 µM | < 10 µM |
| COc1ccc(-c2nc(-c3ccc(OC)cc3)c(C(N)=O)[nH]2)cc1 [Example A-5, 2,4-bis(4-methoxyphenyl)-1H-imidazole-5-carboxamide] | < 100 µM | < 100 µM |
| CC(=O)Nc1ccc(-c2oc(-c3c(F)cccc3F)nc2C(N)=O)cc1 [Example F-23, 5-(4-acetamidophenyl)-2-(2,6-difluorophenyl)oxazole-4-carboxamide] | < 10 µM | < 100 µM |
| COc1ccc(-c2nc(-c3cccc(C)c3)[nH]c2C(N)=O)cc1 [Example A-7, 4-(4-methoxyphenyl)-2-m-tolyl-1H-imidazole-5-carboxamide] | < 100 µM | < 100 µM |
| COc1ccc(Nc2nc(C(N)=O)c(-c3ccc(OC)cc3)o2)cc1 [Example R-4, 5-(4-methoxyphenyl)-2-(4-methoxyphenylamino)oxazole-4-carboxamide] | < 10 µM | < 100 µM |
| NC(=O)c1nc(Nc2ccnn2Cc2ccccc2)oc1-c1ccc(N2CCNCC2)cc1 [Example R-18, 2-(1-benzyl-1H-pyrazol-5-ylamino)-5-(4-(piperazin-1-yl)phenyl)oxazole-4-carboxamide] | < 10 µM | < 10 µM |
| COc1ccc(-c2nc(-c3c(F)cc(Br)cc3F)[nH]c2C(N)=O)cc1 [Example A-14, 2-(4-bromo-2,6-difluorophenyl)-4-(4-methoxyphenyl)-1H-imidazole-5-carboxamide] | < 100 µM | < 100 µM |
| COc1ccc(-c2nc(-c3ccccc3OC)[nH]c2C(N)=O)cc1 [Example A-3, 2-(2-methoxyphenyl)-4-(4-methoxyphenyl)-1H-imidazole-5-carboxamide] | < 100 µM | < 100 µM |
| COc1ccc(-c2oc(Nc3cccc(C)c3)nc2C(N)=O)cc1 [Example R-6, 2-(m-toluidino)-5-(4-methoxyphenyl)oxazole-4-carboxamide] | < 10 µM | < 10 µM |
| NC(=O)c1nc(-c2c(F)cccc2F)oc1Nc1ccc(C(=O)NCC2CCNCC2)cc1 [Example Q-50, 5-(4-((piperidin-4-ylmethyl)carbamoyl)phenylamino)-2-(2,6-difluorophenyl)oxazole-4-carboxamide] | < 10 µM | < 10 µM |
| CNCCNC(=O)c1ccc(Nc2oc(-c3c(F)cccc3F)nc2C(N)=O)cc1 [Example U-3, 5-(4-((2-(methylamino)ethyl)carbamoyl)phenylamino)-2-(2,6-difluorophenyl) oxazole-4-carboxamide] | < 10 µM | < 10 µM |
| NC(=O)c1nc(-c2cccnc2)oc1-c1ccc(N2CCNCC2)cc1 [Example M-13, 5-(4-(piperazin-1-yl)phenyl)-2-(pyridin-3-yl)oxazole-4-carboxamide] | < 10 µM | < 10 µM |
| NC(=O)c1nc(-c2ccncc2)oc1-c1ccc(N2CCNCC2)cc1 [Example M-14, 5-(4-(piperazin-1-yl)phenyl)-2-(pyridin-4-yl)oxazole-4-carboxamide] | < 10 µM | < 10 µM |
| NC(=O)c1ccc(-c2oc(-c3c(F)cccc3F)nc2C(N)=O)cc1 [Example F-17, 5-(4-carbamoylphenyl)-2-(2,6-difluorophenyl)oxazole-4-carboxamide] | < 10 µM | < 10 µM |
| CNCCOc1ccc(-c2oc(-c3c(F)cccc3F)nc2C(N)=O)cc1 [Example S-20, 2-(2,6-difluorophenyl)-5-(4-(2-(methylamino)ethoxy)phenyl)oxazole-4-carboxamide] | < 10 µM | < 10 µM |
| CN(C)CCNC(=O)c1ccc(Nc2oc(-c3c(F)cccc3F)nc2C(N)=O)cc1 [Example U-8, 5-(4-((2-(dimethylamino)ethyl)carbamoyl)phenylamino)-2-(2,6-difluorophenyl) oxazole-4-carboxamide] | < 10 µM | < 10 µM |
| COc1ccc(-c2nc(-c3c(Cl)cccc3Cl)[nH]c2C(N)=O)cc1 [Example A-10, 2-(2,6-dichlorophenyl)-4-(4-methoxyphenyl)-1H-imidazole-5-carboxamide] | < 100 µM | < 100 µM |
| COc1ccc(-c2nc(-c3cccc(OC)c3)[nH]c2C(N)=O)cc1 [Example A-4, 2-(3-methoxyphenyl)-4-(4-methoxyphenyl)-1H-imidazole-5-carboxamide] | < 100 µM | < 100 µM |
| COc1ccc(Nc2oc(-c3c(F)cccc3F)nc2C(N)=O)cc1OC [Example Q-39, 2-(2,6-difluorophenyl)-5-(3,4-dimethoxyphenylamino)oxazole-4-carboxamide] | < 10 µM | < 100 µM |
| CN(C)c1ccc(-c2oc(-c3c(F)cccc3F)nc2C(N)=O)cc1 [Example F-3, 2-(2,6-difluorophenyl)-5-(4-(dimethylamino)phenyl)oxazole-4-carboxamide] | < 10 µM | < 100 µM |
| COc1ccc(-c2nc(-c3cn(C)c4ccccc34)[nH]c2C(N)=O)cc1 [Example B-4, 4-(4-methoxyphenyl)-2-(1-methyl-1H-indol-3-yl)-1H-imidazole-5-carboxamide] | < 100 µM | < 100 µM |
| CN1CCN(c2ccc(Nc3oc(-c4c(F)cccc4F)nc3C(N)=O)cn2)CC1 [Example Q-49, 2-(2,6-difluorophenyl)-5-(6-(4-methylpiperazin-1-yl)pyridin-3-ylamino)oxazole-4-carboxamide] | < 10 µM | < 10 µM |
| COc1ccc(-c2nc(-c3ccccc3Cl)[nH]c2C(N)=O)cc1 [Example A-2, 2-(2-chlorophenyl)-4-(4-methoxyphenyl)-1H-imidazole-5-carboxamide] | < 100 µM | < 100 µM |
| CS(=O)(=O)c1cccc(Nc2oc(-c3c(F)cccc3F)nc2C(N)=O)c1 [Example Q-4, 2-(2,6-difluorophenyl)-5-(3-(methylsulfonyl)phenylamino)oxazole-4-carboxamide] | < 10 µM | < 10 µM |
| NC(=O)c1nc(-c2ccc3cc[nH]c3c2)oc1-c1ccc(N2CCNCC2)cc1 [Example M-16, 2-(1H-indol-6-yl)-5-(4-(piperazin-1-yl)phenyl)oxazole-4-carboxamide] | < 10 µM | < 10 µM |
| NCCCNC(=O)c1ccc(Nc2oc(-c3c(F)cccc3F)nc2C(N)=O)cc1 [Example Q-51, 5-(4-((3-aminopropyl)carbamoyl)phenylamino)-2-(2,6-difluorophenyl)oxazole-4-carboxamide] | < 10 µM | < 10 µM |
